Test results published in US11319299B2, “Substituted carboxamides as inhibitors of WDR5 protein-protein binding” (PROPELLON THERAPEUTICS INC., priority 2016, dated 2022).
pKd: −log10 of the molar value.

Target: WDR5 (Homo sapiens (Human), UniProt P61964)
Test: Surface Plasmon Resonance (SPR) assay, KD and residence time
Assay type: binding
Details: surface plasmon resonance (SPR); read-out: WDR5 binding affinity (KD)

Row | pKd | Compound
1 | 8.01 | C[C@@H]1CN(c2cc(F)c(-c3ccc(C(=O)NC(C)(C)CC(C)(C)C)c(F)c3F)cc2NC(=O)c2c[nH]c(=O)cc2C(F)(F)F)C[C@H](C)N1C [Example 669, N-[5-[2,3-difluoro-4-(2,4,4-trimethylpentan-2-ylcarbamoyl)phenyl]-4-fluoro-2-[(3R,5S)-3,4,5-trimethylpiperazin-1-yl]phenyl]-6-oxo-4-(trifluoromethyl)-1H-pyridine-3-carboxamide]
2 | 8.41 | C[C@@H]1CN(c2cc(F)c(-c3ccc(C(N)=O)c(F)c3F)cc2NC(=O)c2c[nH]c(=O)cc2C(F)(F)F)C[C@H](C)N1C [Example 670, N-[5-(4-carbamoyl-2,3-difluorophenyl)-4-fluoro-2-[(3R,5S)-3,4,5-trimethylpiperazin-1-yl]phenyl]-6-oxo-4-(trifluoromethyl)-1H-pyridine-3-carboxamide]
3 | 8.31 | CC(C)OC(=O)N1CCC=C(c2cc(NC(=O)c3c[nH]c(=O)cc3C(F)(F)F)c(N3C[C@@H](C)N(C)[C@@H](C)C3)cc2F)CC1 [Example 674, Propan-2-yl 4-[2-fluoro-5-[[6-oxo-4-(trifluoromethyl)-1H-pyridine-3-carbonyl]amino]-4-[(3R,5S)-3,4,5-trimethylpiperazin-1-yl]phenyl]-2,3,6,7-tetrahydroazepine-1-carboxylate]
4 | 8.71 | C[C@@H]1CN(c2cc(F)c(-c3ccc4c(c3)ncn4C)cc2NC(=O)c2c[nH]c(=O)cc2C(F)(F)F)C[C@H](C)N1C [Example 675, N-[4-fluoro-5-(1-methylbenzimidazol-5-yl)-2-[(3R,5S)-3,4,5-trimethylpiperazin-1-yl]phenyl]-6-oxo-4-(trifluoromethyl)-1H-pyridine-3-carboxamide]
5 | 8.36 | C[C@@H]1CN(c2cc(F)c(-c3ccc4ncn(C)c4c3)cc2NC(=O)c2c[nH]c(=O)cc2C(F)(F)F)C[C@H](C)N1C [Example 676, N-[4-fluoro-5-(3-methylbenzimidazol-5-yl)-2-[(3R,5S)-3,4,5-trimethylpiperazin-1-yl]phenyl]-6-oxo-4-(trifluoromethyl)-1H-pyridine-3-carboxamide]
6 | 8.28 | C[C@@H]1CN(c2cc(F)c(-c3cccc4scnc34)cc2NC(=O)c2c[nH]c(=O)cc2C(F)(F)F)C[C@H](C)N1C [Example 677, N-[5-(1,3-benzothiazol-4-yl)-4-fluoro-2-[(3R,5S)-3,4,5-trimethylpiperazin-1-yl]phenyl]-6-oxo-4-(trifluoromethyl)-1H-pyridine-3-carboxamide]
7 | 8.49 | C[C@@H]1CN(c2cc(F)c(-c3ccc4scnc4c3)cc2NC(=O)c2c[nH]c(=O)cc2C(F)(F)F)C[C@H](C)N1C [Example 678, N-[5-(1,3-benzothiazol-5-yl)-4-fluoro-2-[(3R,5S)-3,4,5-trimethylpiperazin-1-yl]phenyl]-6-oxo-4-(trifluoromethyl)-1H-pyridine-3-carboxamide]
8 | 8.53 | C[C@@H]1CN(c2cc(F)c(-c3ccc4ncsc4c3)cc2NC(=O)c2c[nH]c(=O)cc2C(F)(F)F)C[C@H](C)N1C [Example 679, N-[5-(1,3-benzothiazol-6-yl)-4-fluoro-2-[(3R,5S)-3,4,5-trimethylpiperazin-1-yl]phenyl]-6-oxo-4-(trifluoromethyl)-1H-pyridine-3-carboxamide]
9 | 7.24 | C[C@@H]1CN(c2cc(F)c(-c3ccc4c(c3)ncn4C)cc2NC(=O)c2cn(C)c(=O)cc2C(F)F)C[C@H](C)N1C [Example 680, 4-(difluoromethyl)-N-[4-fluoro-5-(1-methylbenzimidazol-5-yl)-2-[(3R,5S)-3,4,5-trimethylpiperazin-1-yl]phenyl]-1-methyl-6-oxopyridine-3-carboxamide]
10 | 7.41 | C[C@@H]1CN(c2cc(F)c(-c3ccc4ncn(C)c4c3)cc2NC(=O)c2cn(C)c(=O)cc2C(F)F)C[C@H](C)N1C [Example 681, 4-(difluoromethyl)-N-[4-fluoro-5-(3-methylbenzimidazol-5-yl)-2-[(3R,5S)-3,4,5-trimethylpiperazin-1-yl]phenyl]-1-methyl-6-oxopyridine-3-carboxamide]
11 | 7.69 | C[C@@H]1CN(c2cc(F)c(-c3cccc4scnc34)cc2NC(=O)c2cn(C)c(=O)cc2C(F)F)C[C@H](C)N1C [Example 682, N-[5-(1,3-benzothiazol-4-yl)-4-fluoro-2-[(3R,5S)-3,4,5-trimethylpiperazin-1-yl]phenyl]-4-(difluoromethyl)-1-methyl-6-oxopyridine-3-carboxamide]
12 | 7.91 | C[C@@H]1CN(c2cc(F)c(-c3ccc4scnc4c3)cc2NC(=O)c2cn(C)c(=O)cc2C(F)F)C[C@H](C)N1C [Example 683, N-[5-(1,3-benzothiazol-5-yl)-4-fluoro-2-[(3R,5S)-3,4,5-trimethylpiperazin-1-yl]phenyl]-4-(difluoromethyl)-1-methyl-6-oxopyridine-3-carboxamide]
13 | 8.11 | C[C@@H]1CN(c2cc(F)c(-c3ccc4ncsc4c3)cc2NC(=O)c2cn(C)c(=O)cc2C(F)F)C[C@H](C)N1C [Example 684, N-[5-(1,3-benzothiazol-6-yl)-4-fluoro-2-[(3R,5S)-3,4,5-trimethylpiperazin-1-yl]phenyl]-4-(difluoromethyl)-1-methyl-6-oxopyridine-3-carboxamide]
14 | 8.65 | C[C@@H]1CN(c2cc(F)c(C3=CCN(c4ncc(C#N)s4)CC3)cc2NC(=O)c2c[nH]c(=O)cc2C(F)F)C[C@H](C)N1C [Example 685, N-[5-[1-(5-cyano-1,3-thiazol-2-yl)-3,6-dihydro-2H-pyridin-4-yl]-4-fluoro-2-[(3R,5S)-3,4,5-trimethylpiperazin-1-yl]phenyl]-4-(difluoromethyl)-6-oxo-1H-pyridine-3-carboxamide]
15 | 8.74 | C[C@@H]1CN(c2cc(F)c(C3=CCCN(c4ncc(C#N)s4)C3)cc2NC(=O)c2c[nH]c(=O)cc2C(F)F)C[C@H](C)N1C [Example 687, N-[5-[1-(5-cyano-1,3-thiazol-2-yl)-3,6-dihydro-2H-pyridin-5-yl]-4-fluoro-2-[(3R,5S)-3,4,5-trimethylpiperazin-1-yl]phenyl]-4-(difluoromethyl)-6-oxo-1H-pyridine-3-carboxamide]
16 | 8.62 | C[C@@H]1CN(c2cc(F)c(-c3ccnc(N4CCOCC4)n3)cc2NC(=O)c2c[nH]c(=O)cc2C(F)F)C[C@H](C)N1C [Example 692, 4-(difluoromethyl)-N-[4-fluoro-5-(2-morpholin-4-ylpyrimidin-4-yl)-2-[(3R,5S)-3,4,5-trimethylpiperazin-1-yl]phenyl]-6-oxo-1H-pyridine-3-carboxamide]
17 | 8.32 | C[C@@H]1CN(c2cc(F)c(-c3ccnc(N4CCOCC4)n3)cc2NC(=O)c2cn(C)c(=O)cc2C(F)(F)F)C[C@H](C)N1C [Example 693, N-[4-fluoro-5-(2-morpholin-4-ylpyrimidin-4-yl)-2-[(3R,5S)-3,4,5-trimethylpiperazin-1-yl]phenyl]-1-methyl-6-oxo-4-(trifluoromethyl)pyridine-3-carboxamide]
18 | 8.60 | C[C@@H]1CN(c2cc(F)c(-c3ccnc(OC4CCOCC4)n3)cc2NC(=O)c2c[nH]c(=O)cc2C(F)(F)F)C[C@H](C)N1C [Example 695, N-[4-fluoro-5-[2-(oxan-4-yloxy)pyrimidin-4-yl]-2-[(3R,5S)-3,4,5-trimethylpiperazin-1-yl]phenyl]-6-oxo-4-(trifluoromethyl)-1H-pyridine-3-carboxamide]
19 | 8.88 | C[C@@H]1CN(c2cc(F)c(C3=CCN(c4ncc(C#N)s4)CC3)cc2NC(=O)c2c[nH]c(=O)cc2C(F)(F)F)C[C@H](C)N1C [Example 696, N-[5-[1-(5-cyano-1,3-thiazol-2-yl)-3,6-dihydro-2H-pyridin-4-yl]-4-fluoro-2-[(3R,5S)-3,4,5-trimethylpiperazin-1-yl]phenyl]-6-oxo-4-(trifluoromethyl)-1H-pyridine-3-carboxamide]
20 | 8.43 | C[C@@H]1CN(c2cc(F)c(C3=CCCN(C(=O)OC4(C)CCC4)CC3)cc2NC(=O)c2c[nH]c(=O)cc2C(F)(F)F)C[C@H](C)N1C [Example 699, (1-methylcyclobutyl) 4-[2-fluoro-5-[[6-oxo-4-(trifluoromethyl)-1H-pyridine-3-carbonyl]amino]-4-[(3R,5S)-3,4,5-trimethylpiperazin-1-yl]phenyl]-2,3,6,7-tetrahydroazepine-1-carboxylate]
21 | 8.14 | C[C@@H]1CN(c2cc(F)c(C3=CCCN(c4ncc(C#N)s4)CC3)cc2NC(=O)c2c[nH]c(=O)cc2C(F)(F)F)C[C@H](C)N1C [Example 700, N-[5-[1-(5-cyano-1,3-thiazol-2-yl)-2,3,6,7-tetrahydroazepin-4-yl]-4-fluoro-2-[(3R,5S)-3,4,5-trimethylpiperazin-1-yl]phenyl]-6-oxo-4-(trifluoromethyl)-1H-pyridine-3-carboxamide]
22 | 8.76 | C[C@@H]1CN(c2cc(F)c(C3=CCCN(c4ccnc(C#N)n4)C3)cc2NC(=O)c2c[nH]c(=O)cc2C(F)(F)F)C[C@H](C)N1C [Example 701, N-[5-[1-(2-cyanopyrimidin-4-yl)-3,6-dihydro-2H-pyridin-5-yl]-4-fluoro-2-[(3R,5S)-3,4,5-trimethylpiperazin-1-yl]phenyl]-6-oxo-4-(trifluoromethyl)-1H-pyridine-3-carboxamide]
23 | 8.46 | C[C@@H]1CN(c2cc(F)c(C3=CCN(C(=O)OC4CC(F)(F)C4)CC3)cc2NC(=O)c2c[nH]c(=O)cc2C(F)F)C[C@H](C)N1C [Example 702, (3,3-difluorocyclobutyl) 4-[5-[[4-(difluoromethyl)-6-oxo-1H-pyridine-3-carbonyl]amino]-2-fluoro-4-[(3R,5S)-3,4,5-trimethylpiperazin-1-yl]phenyl]-3,6-dihydro-2H-pyridine-1-carboxylate]
24 | 8.57 | C[C@@H]1CN(c2cc(F)c(C3=CCCN(C(=O)OC4CC(F)(F)C4)C3)cc2NC(=O)c2c[nH]c(=O)cc2C(F)F)C[C@H](C)N1C [Example 704, (3,3-difluorocyclobutyl) 5-[5-[[4-(difluoromethyl)-6-oxo-1H-pyridine-3-carbonyl]amino]-2-fluoro-4-[(3R,5S)-3,4,5-trimethylpiperazin-1-yl]phenyl]-3,6-dihydro-2H-pyridine-1-carboxylate]
